Reference: ChEMBL document CHEMBL1133967, “New leads for selective inhibitors of alpha-L-fucosidases. Synthesis and glycosidase inhibitory activities of [(2R,3S,4R)-3,4-dihydroxypyrrolidin-2-yl]furan derivatives” (Bioorg Med Chem Lett, 2001)
One block for each molecule: values may come before it. The source made the active and inactive calls. The rule behind the calls is not given here.

Key:
[1] = tested on: Prunus dulcis; assay: Percent inhibition against Alpha-mannosidase of Almonds at 1 mM
[2] = Inhibitory concentration against Alpha-mannosidase of Jack bean; set-up: species or system Canavalia ensiformis
[3] = molecular target: Glucoamylase (Aspergillus niger) (UniProt P69328); assay: Percent inhibition against Amyloglucosidase of Aspergillus niger at 1 mM
[4] = molecular target: Beta-galactosidase (Escherichia coli) (UniProt Q8VNN2); assay: Inhibitory activity against beta-D-Galactosidase of Escherichia coli at 1 mM; No inhibition
[5] = molecular target: T1, Beta-galactosidase (Bos taurus) (UniProt Q58D55); assay: Percent inhibition against Beta-D-galactosidase of bovine liver at 1 mM
T1 sequence (whole entry): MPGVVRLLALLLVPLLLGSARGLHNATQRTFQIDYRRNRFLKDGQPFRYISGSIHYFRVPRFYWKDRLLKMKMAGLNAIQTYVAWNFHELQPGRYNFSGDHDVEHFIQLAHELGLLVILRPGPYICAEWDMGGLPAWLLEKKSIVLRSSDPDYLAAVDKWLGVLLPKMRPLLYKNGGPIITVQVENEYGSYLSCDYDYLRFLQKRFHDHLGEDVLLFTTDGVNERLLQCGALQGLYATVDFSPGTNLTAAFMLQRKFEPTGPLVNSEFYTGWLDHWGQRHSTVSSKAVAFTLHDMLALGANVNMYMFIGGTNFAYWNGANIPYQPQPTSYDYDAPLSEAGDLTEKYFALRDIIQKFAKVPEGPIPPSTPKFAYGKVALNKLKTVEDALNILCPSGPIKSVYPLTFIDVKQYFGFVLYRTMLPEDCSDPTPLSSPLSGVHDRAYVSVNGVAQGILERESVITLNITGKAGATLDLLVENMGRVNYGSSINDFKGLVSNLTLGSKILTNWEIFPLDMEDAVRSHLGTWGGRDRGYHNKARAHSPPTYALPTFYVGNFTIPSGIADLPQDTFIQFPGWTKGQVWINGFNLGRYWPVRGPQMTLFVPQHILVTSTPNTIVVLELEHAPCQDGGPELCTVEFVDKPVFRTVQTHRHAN

[6] = molecular target: Beta-galactosidase (Bos taurus, UniProt Q58D55); assay: Inhibitory concentration against Beta-D-galactosidase of bovine liver
[7] = tested on: Canavalia ensiformis; assay: Percent inhibition against Alpha-mannosidase of Jack bean at 1 mM
[8] = molecular target: T2, Beta-galactosidase (Aspergillus niger) (UniProt P29853); assay: Inhibitory activity against Beta-D-galactosidase of Aspergillus niger at 1 mM; No inhibition
T2 sequence (whole entry): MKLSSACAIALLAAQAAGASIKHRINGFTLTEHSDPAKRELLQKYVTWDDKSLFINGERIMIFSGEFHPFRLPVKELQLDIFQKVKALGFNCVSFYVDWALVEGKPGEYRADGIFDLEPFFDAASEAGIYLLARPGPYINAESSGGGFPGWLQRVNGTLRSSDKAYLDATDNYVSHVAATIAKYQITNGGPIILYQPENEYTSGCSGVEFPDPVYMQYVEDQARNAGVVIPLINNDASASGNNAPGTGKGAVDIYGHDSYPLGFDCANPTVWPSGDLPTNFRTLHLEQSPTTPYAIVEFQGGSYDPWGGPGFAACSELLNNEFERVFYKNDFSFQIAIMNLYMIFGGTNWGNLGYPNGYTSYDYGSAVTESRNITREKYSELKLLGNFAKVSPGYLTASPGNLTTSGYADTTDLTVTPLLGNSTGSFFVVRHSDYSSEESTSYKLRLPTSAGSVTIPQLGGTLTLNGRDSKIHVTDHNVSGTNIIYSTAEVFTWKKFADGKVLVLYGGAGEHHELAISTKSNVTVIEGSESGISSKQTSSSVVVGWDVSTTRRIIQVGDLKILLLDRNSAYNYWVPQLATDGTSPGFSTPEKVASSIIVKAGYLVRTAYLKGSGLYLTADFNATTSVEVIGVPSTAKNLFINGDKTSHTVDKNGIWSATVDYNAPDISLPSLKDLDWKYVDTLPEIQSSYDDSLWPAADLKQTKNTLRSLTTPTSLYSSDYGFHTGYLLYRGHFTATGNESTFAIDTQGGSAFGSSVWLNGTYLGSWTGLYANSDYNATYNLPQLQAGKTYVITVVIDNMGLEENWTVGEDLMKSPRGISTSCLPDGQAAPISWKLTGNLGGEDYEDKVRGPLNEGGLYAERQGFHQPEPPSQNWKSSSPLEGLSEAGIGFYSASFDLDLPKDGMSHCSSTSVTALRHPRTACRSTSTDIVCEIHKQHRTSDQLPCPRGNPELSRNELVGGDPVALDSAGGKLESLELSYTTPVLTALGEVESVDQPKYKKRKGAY

[9] = Inhibitory activity against Alpha-mannosidase of Jack bean expressed as Ki; set-up: species or system Canavalia ensiformis
[10] = tested on: isomaltase (Saccharomyces cerevisiae); assay: Inhibitory activity against isomaltase of baker yeast at 1 mM; No inhibition
[11] = tested on: Aspergillus niger; assay: Inhibitory activity against Alpha-galactosidase of Aspergillus niger at 1 mM; No inhibition
[12] = tested on: Beta-N-acetylglucosaminidase (Bos taurus); assay: Inhibitory activity against Beta-N-acetylglucosaminidase of bovine epididymis B at 1 mM; No inhibition
[13] = tested on: Escherichia coli; assay: Inhibitory activity against Alpha-galactosidase of Escherichia coli at 1 mM; No inhibition
[14] = tested on: Canavalia ensiformis; assay: Inhibitory activity against Beta-D-galactosidase of Jack bean at 1 mM; No inhibition
[15] = tested on: Rhizopus; assay: Percent inhibition against Amyloglucosidase of Rhizopus mold at 1 mM
[16] = tested on: Caldicellulosiruptor saccharolyticus; assay: Inhibitory activity against Beta-glucosidase of Caldocellum saccharolyticum at 1 mM; No inhibition
[17] = tested on: Beta-N-acetylglucosaminidase (Canavalia ensiformis); assay: Inhibitory activity against Beta-N-acetylglucosaminidase of Jack bean at 1 mM; No inhibition
[18] = molecular target: T3, Tissue alpha-L-fucosidase (Homo sapiens, UniProt P04066); assay: Inhibitory activity against alpha-L-Fucosidase of human placenta expressed as Ki
T3 sequence (P04066 whole entry): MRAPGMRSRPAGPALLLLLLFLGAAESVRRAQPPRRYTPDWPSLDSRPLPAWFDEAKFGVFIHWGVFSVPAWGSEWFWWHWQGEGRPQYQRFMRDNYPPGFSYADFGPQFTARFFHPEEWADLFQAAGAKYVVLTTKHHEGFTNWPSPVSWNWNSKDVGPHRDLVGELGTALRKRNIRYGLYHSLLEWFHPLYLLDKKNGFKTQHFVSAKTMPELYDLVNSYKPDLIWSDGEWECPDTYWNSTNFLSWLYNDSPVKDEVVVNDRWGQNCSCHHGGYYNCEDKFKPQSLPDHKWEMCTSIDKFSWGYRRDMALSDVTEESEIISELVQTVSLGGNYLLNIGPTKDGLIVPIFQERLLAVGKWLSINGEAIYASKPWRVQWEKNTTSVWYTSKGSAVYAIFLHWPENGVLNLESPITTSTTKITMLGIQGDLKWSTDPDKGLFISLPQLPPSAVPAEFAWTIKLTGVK

[19] = tested on: Aspergillus oryzae; assay: Inhibitory activity against Beta-D-galactosidase of Aspergillus oryzae at 1 mM; No inhibition
[20] = tested on: Prunus dulcis; assay: Inhibitory activity against Beta-glucosidase of almonds at 1 mM; No inhibition
[21] = tested on: maltase (Saccharomyces cerevisiae); assay: Inhibitory activity against maltase of yeast at 1 mM; No inhibition
[22] = tested on: Beta-N-acetylglucosaminidase (Bos taurus); assay: Inhibitory activity against Beta-N-acetylglucosaminidase of bovine epididymis A at 1 mM; No inhibition
[23] = molecular target: Beta-galactosidase (Escherichia coli) (UniProt Q8VNN2); assay: Inhibitory activity against Beta-D-galactosidase of Escherichia coli at 1 mM; No inhibition
[24] = species: Gallus gallus; assay: Inhibitory activity against alpha-N-acetylgalactosaminidase of chicken liver at 1 mM; No inhibition
[25] = tested on: maltase (Oryza sativa); assay: Inhibitory activity against maltase of rice at 1 mM; No inhibition
[26] = molecular target: T3, Tissue alpha-L-fucosidase; assay: Inhibitory concentration against alpha-L-Fucosidase of human placenta
[27] = molecular target: T4, Tissue alpha-L-fucosidase (Homo sapiens) (UniProt P04066); assay: Percent inhibition against alpha-L-Fucosidase of human placenta at 1 mM
T4 sequence (whole entry): T3 sequence (P04066 whole entry)

[28] = tested on: Helix pomatia; assay: Inhibitory activity against Beta-mannosidase of Helix pomatia at 1 mM; No inhibition
[29] = tested on: Coffea arabica; assay: Percent inhibition against Alpha-galactosidase of coffee bean at 1 mM

Chain of Beta-galactosidase (Escherichia coli) (Q8VNN2 whole entry, looked up): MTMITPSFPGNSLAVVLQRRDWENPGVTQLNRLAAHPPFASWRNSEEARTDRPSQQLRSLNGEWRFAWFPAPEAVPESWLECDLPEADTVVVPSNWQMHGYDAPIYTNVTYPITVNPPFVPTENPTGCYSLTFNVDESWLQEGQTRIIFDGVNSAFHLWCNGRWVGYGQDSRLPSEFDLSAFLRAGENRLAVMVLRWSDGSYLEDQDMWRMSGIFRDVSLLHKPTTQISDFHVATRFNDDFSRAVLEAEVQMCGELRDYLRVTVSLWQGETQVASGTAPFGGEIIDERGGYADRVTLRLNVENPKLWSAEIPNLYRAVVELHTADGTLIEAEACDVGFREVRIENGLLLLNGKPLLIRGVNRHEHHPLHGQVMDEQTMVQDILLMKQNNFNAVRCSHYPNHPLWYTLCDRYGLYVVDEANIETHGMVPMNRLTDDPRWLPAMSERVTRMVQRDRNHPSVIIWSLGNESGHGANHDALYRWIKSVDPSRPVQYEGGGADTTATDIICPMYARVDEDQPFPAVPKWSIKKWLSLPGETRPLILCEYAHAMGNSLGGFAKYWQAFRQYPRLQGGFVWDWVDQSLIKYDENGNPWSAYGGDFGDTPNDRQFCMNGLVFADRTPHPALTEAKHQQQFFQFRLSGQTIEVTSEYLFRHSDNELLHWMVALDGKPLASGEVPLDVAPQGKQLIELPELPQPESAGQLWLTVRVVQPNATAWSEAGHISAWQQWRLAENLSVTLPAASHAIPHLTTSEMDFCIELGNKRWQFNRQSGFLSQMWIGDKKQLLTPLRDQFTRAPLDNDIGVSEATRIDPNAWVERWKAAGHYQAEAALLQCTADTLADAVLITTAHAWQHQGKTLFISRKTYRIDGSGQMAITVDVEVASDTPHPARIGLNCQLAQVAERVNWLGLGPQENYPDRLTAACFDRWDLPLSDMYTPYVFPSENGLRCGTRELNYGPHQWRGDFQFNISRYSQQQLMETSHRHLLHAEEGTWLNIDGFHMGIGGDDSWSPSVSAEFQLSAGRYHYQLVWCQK
Chain of Glucoamylase (Aspergillus niger) (P69328 whole entry): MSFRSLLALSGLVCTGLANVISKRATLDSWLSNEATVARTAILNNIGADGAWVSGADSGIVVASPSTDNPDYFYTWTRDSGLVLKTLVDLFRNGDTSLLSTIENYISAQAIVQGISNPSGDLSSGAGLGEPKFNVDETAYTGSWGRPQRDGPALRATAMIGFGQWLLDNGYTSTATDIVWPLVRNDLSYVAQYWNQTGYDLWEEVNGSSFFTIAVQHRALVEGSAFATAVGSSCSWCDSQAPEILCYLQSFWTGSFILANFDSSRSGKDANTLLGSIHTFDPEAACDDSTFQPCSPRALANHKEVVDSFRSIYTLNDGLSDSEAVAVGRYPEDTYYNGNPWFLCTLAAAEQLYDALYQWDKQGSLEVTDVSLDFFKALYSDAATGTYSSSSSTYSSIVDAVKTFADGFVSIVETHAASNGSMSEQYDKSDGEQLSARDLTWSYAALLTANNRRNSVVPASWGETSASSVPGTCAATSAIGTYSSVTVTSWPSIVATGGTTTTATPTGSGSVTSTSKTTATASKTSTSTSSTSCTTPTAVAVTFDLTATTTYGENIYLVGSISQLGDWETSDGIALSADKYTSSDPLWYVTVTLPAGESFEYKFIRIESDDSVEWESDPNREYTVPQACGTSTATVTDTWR

inhibition [1]: 57% | IC50 [2]: 250 µM | inhibition [3]: 27% | inhibition [4]: inactive | inhibition [5]: 57% | IC50 [6]: 640 µM | inhibition [7]: 78% | inhibition [8]: inactive | Ki [9]: 85 µM
Structure (SMILES): Cc1oc(C2NCC(O)C2O)cc1C(=O)OC(C)C (stereo not given)

inhibition [10]: No inhibition | inhibition [11]: No inhibition | inhibition [12]: inactive | inhibition [13]: No inhibition | inhibition [1]: 36% | inhibition [3]: 23% | inhibition [14]: No inhibition | inhibition [15]: 33% | inhibition [16]: No inhibition | inhibition [17]: inactive | inhibition [5]: 54% | Ki [18]: 13.8 µM | inhibition [19]: No inhibition | inhibition [20]: inactive | inhibition [21]: No inhibition | inhibition [22]: inactive | IC50 [6]: 800 µM | inhibition [23]: No inhibition | inhibition [7]: 23% | inhibition [24]: No inhibition | inhibition [25]: No inhibition | inhibition [8]: No inhibition | IC50 [26]: 150 µM | inhibition [27]: 88% | inhibition [28]: No inhibition | inhibition [29]: 42%
Structure (SMILES): COC(=O)c1cc(C2NCC(O)C2O)oc1C (stereo not given)
